Test results: patent US10729693B2, “Compositions and methods for the treatment of endometriosis” (PONCE MEDICAL SCHOOL FOUNDATION, INC., priority 2018, dated 2020)

Experiment: Body weight monitoring of rats with endometriosis
Format: in vivo, rat
Conditions: vs vehicle
Excerpt: Female Sprague Dawley rats of 60 days old were used in the experiments (weighing between 190-220 grams). Rats were purchased from Ponce Research Institute Animal Facilities and littermates were never assigned to the same experimental group. Rats were housed two per cage and kept in a 12-hour light/dark cycle with food and water ad libitum. All experimental procedures were approved by the Ponce Health Sciences University (protocol #202) and the University of Texas at Rio Grande Valley (protocol #2016-004) Institutional Animal Care and Use Committees and adhere to the NIH Guide for the Care and Use of Laboratory Animals. Rats were weighed twice per week to monitor their adequate development and once a day during the drug administration period; also, estrous cycles were monitored before and after treatment to assess possible effects of the drug on reproductive cyclicity.
Inconsistencies in the effect of antalarmin on […] rodent body weight can happen. The Group 2 rat weight changes were monitored during the drug administration period and every week afterwards during the development of endometriosis.

For `CCCCN(CC)c1nc(C)nc2c1c(C)c(C)n2-c1c(C)cc(C)cc1C` [antalarmin], the “weight gain in subsequent weeks” value (by week 7 and 8 after endometriosis induction) was “significantly lower weight gain” and the “body weight during and just after drug administration” value (day 7 and 2 days after treatment stopped) was “weighed significantly less”.
